From US20060148714A1, “Therapeutic peptide-based constructs” (priority 1999, published 2006)
In brackets after ≈: the same amount, converted by molar mass. Where a SMILES comes first, the peptide text is derived from it. [ ]: non-standard residue; d: D form. d1Nal = N[C@H](Cc1cccc2ccccc12)C(=O)O

Assays:
[1] = system: human umbilical vein endothelial cells (HUVEC); format: cell-based; settings: for IC50: 72 h
Experimental: Briefly, human umbilical vein endothelial cells (HUVEC) were cultured in EGM-2 medium (Clonetics Corp., San Diego, Calif.), harvested and plated onto a 96-well culture plate. After 24 hours of quiescence, the cells were co-cultured with various peptide-based constricts in the presence of growth factors for 72 hours to test their activity. Cell proliferation was quantitated by tritiated thymidine incorporation into DNA and was expressed in counts per minute (cpm).
Details of the experimental procedures were as follows: HUVEC cells were cultured in EGM-2 media from Clonetics Corp., a subsidiary of BioWhittaker, Inc., San Diego, Calif. [EGM-2 is Endothelial Cell Basal Medium-2 (EMB-2) supplemented with growth factors (hFGF-B, VEGF, IGF-1, hEGF) ascorbic acid, heparin, GA-1000 and 2% FBS), in T75 flasks until confluent (˜4-7 days). Cells were harvested by trypsinizing the cells using 0.025% trypsin/EDTA for 5 minutes. To stop the reaction, 2-5% FBS was added. The cells were centrifuged and washed 3 times using Hank's Balanced Salt Solution (HBSS) or Dulbecco's Phosphate Buffered Saline D-PBS. The pellet was then resuspended in EBM-2 supplemented with 0.1% FBS and GA-1000 was used. The cells were counted and a cell suspension was prepared at 2×10^5/mL in EBM-2 with 0.1% FBS; cells were dispensed into a 96-well flat bottomed culture plate at 0.1 mL/well (total: ˜20,000 cells/well in 0.1% FBS-EBM-2). Incubation continued at 37° C. in 5% CO2 for 20-24 hours. The next day peptide-based constructs were prepared for testing in a 96 well plate. The supernatant was aspirated from the cell-well, replaced with EBM-2 or the testing reagent at 20 μL/well. Then, 180 μL/well of 1.12% FBS-GFS were added to make a final concentration of 1% FBS-GFS in EBM-2. This aspiration and addition was done well-by-well. ^3H-thymidine (100 μCi/mL) was added at 10 μL/well (1 μCi/well, final). Incubation continued at 37° C., 5% CO2 for 72 hours. To harvest the plate, the supernatant was aspirated off from the cell-well and then 75 μL-100 μL/well of 0.025% trypsin-EDTA was added. After incubation for 8-10 minutes at room temperature in the hood, the cells were checked and 100 μL/well of 2-5% FBS-PBS was added to stop the reaction. The plate was then harvested, dried and counted using an Inotech cell harvester (Inotech Biosystems, INB-384, Sample Processing and Filter Counting System, Lansing, Mich.).

[2] = system: bFGF-induced angiogenesis; experiment: In vivo Matrigel angiogenesis assay (hemoglobin content of excised gel); settings: 10 μg peptide construct per gel; hemoglobin of gel excised ten days after s.c. injection; C57BL/6J mice
Experimental: For these experiments, peptide-based constructs according to the invention were assayed for their ability to inhibit heparin-induced angiogenesis in vivo in mice. Basement membrane matrix (Matrigel®, Becton Dickinson Labware, Mountain View, Calif.) was thawed and maintained at 4° C. and angiogenic factors were added to the gel in the liquid state generally as described in Passaniti et al., 1992, Lab. Invest. 67: 519-528. Heparin sodium (Sigma, St. Louis, Mo.) was dissolved in sterile PBS to various concentrations ranging from 1,250-10,000 U/mL, and used in these experiments at 8,000 U/mL. Human recombinant basic fibroblast growth factor (bFGF; Sigma) was reconstituted into 1. % BSA in PBS to 25 μg/mL. A volume of 2.5 μL dissolved heparin solution and 4.0 μL recombinant bFGF were added to 0.5 mL Matrigel® mixture per mouse injection. Peptide-based constructs were added to this Matrigel® mixture at varying concentrations ranging from 0.5 to 50 μg/mL (final concentration) in 10 μL/0.5 mL Matrigel® aliquot per experimental animal. Ten μL sterile PBS was substituted for peptide-based constructs in Matrigel® aliquots injected into control animals.
Female C57BL/6J mice (Jackson Laboratory, Bar Barbor, Me.) at 6-8 weeks of age (maintained under NIH guidelines) were injected subcutaneously down the dorsal midline with 0.5 mL aliquots of Matrigel® prepared as described above. Ten days after injection, the Matrigel® gels were excised and placed in Drabkin's reagent (Sigma). Total protein and hemoglobin content can be determined for the gels stored in Drabkin's reagent after mechanical homogenization of the gels. Hemoglobin concentration was measured using Sigma Procedure #525 and reagents supplied by Sigma (St. Louis, Mo.) to be used with this procedure. If desired, total protein levels are determined using a microplate assay that is commercially embodied in a kit (DC Protein Assay, Bio-Rad, Richmond, Calif.).
Gels to be used for histological staining are formalin-fixed immediately after excision from the animals rather than being placed in Drabkin's reagent. Formalin-fixed gels are embedded in Tissue-Tek O.C.T. compound (Miles, Inc., Elkhart, Ind.) for frozen sectioning. Slides of frozen sections are stained with hematoxylin and eosin (as described by Humason, 1979, Animal Tissue Techniques, 4th Ed. W.H. Feeman & Co., San Francisco, Calif., Ch. 9, pp. 111-131). The effect of peptides are detected by microscopic examination of frozen stained sections for inhibition of angiogenesis relative to Matrigel® gel slices prepared without added peptides. The extent of angiogenesis inhibition is quantitated using the normalized amounts of hemoglobin found in BPI peptide-containing gel slices.
Data are presented as the means of triplicate determinations of hemoglobin concentrations from the excised gel (ISEM) with ten mice per group.

[3] = system: Factor Xa neutralization by ATIII/heparin complexes; experiment: Chromostrate heparin anti-Factor Xa assay (heparin neutralization); format: biochemical; settings: absorbance at 405 nm
Experimental: A Chromostrate™ assay was used to determine the effect of peptide-based constructs, including derivatized constructs, and the effect protamine sulfate (as a positive control) on Factor Xa neutralization by ATIII/heparin complexes. The assay was conducted using a Chromostrate™ heparin anti-Factor Xa assay kit (Organon Teknika Corp., Durham, N.C.). Heparin concentration was varied so that a heparin standard curve was generated. The assay measured the potentiating effect of heparin on anti-Xa activity in vitro. Solution containing heparin is incubated in the presence of ATIII with an excess of Factor Xa, forming an ATIII-Heparin-Xa complex. The remaining Xa catalyzes the release of p-nitroaniline (pNA) from the chromogenic substrate. The release of p-nitroaniline is measured at 405 nm. The absorbance obtained in inversely porportional to the concentration of heparin in the sample.
Reagents for the assay are prepared as follows. Heparin, peptide-based constructs and protamine sulfate stocks are made in saline. Stock solutions are approximately 1 mg/mL=1 μg/μL. Factor Xa reagent and substrate reagent are reconstituted with 2.0 mL purified water. Antithrombin III (ATIII) reagent is reconstituted with 1.0 mL purified water. The assay is performed in 96 well microtiter plates. Assay components are added to the microtiter wells as follows: 12.5 μl of heparin (from 0 to 10 U/mL), 25 μl of construct or protamine sulfate, 12.5 μL of ATIII (0.5 PEU/mL), 25 μL of bovine Factor Xa (14 nKat/mL), 25 μL substrate (3 μmoles/mL). The reaction is allowed to proceed for 20 minutes and then 25 μL of 0.1 M acetic acid is added. The color reaction is quantitated on a microplate reader at 405 nm. Constructs that neutralize heparin show an increase in the absorbance at 405 nm. Protamine is used as a positive control and its activity is designated as 100%. The percent (%) heparin neutralization for each peptide construct is calculated relative to the neutralization by protamine (100%), and shown in Table IV.

LPS = experiment: RAW cell assay of LPS neutralization; format: cell-based
[4] = system: E. coli (J5 and 0111 B4), Staphylococcus aureus and Candida albicans; experiment: Broth and/or radial diffusion antimicrobial assays; format: cell-based
Description: Assays useful for testing a variety of biological activities of BPI protein products, including BPI-derived peptides, are described in co-owned U.S. Pat. Nos. 5,733,872; 5,763,567; 5,652,332; and 5,856,438 and corresponding PCT Publication Nos. WO 94/20532 (PCT/US94/02465) and WO 95/19372 (PCT/US94/10427) and U.S. Pat. No. 5,858,974 and corresponding PCT Publications Nos. WO 96/08509 (PCT/US95/09262) and WO 97/04008 (PCT/US96/03845), incorporated herein by reference. These activities include antimicrobial (including antibacterial and antifungal), LPS binding, LPS neutralization and additional assays of heparin binding as well as heparin neutralization.

| Structure (SMILES) | IC50 [1] [µg/mL] | % Inhibition [2] [%] | Assay A: percent heparin neutralization relative to protamine (100%) [3] [%] | Assay B: percent heparin neutralization relative to protamine (100%) [3] [%] | LPS neutralization activity (LPS) | antimicrobial activity [4] | IC50 values, additional assays ([1]; HUVEC proliferation, purified constructs, said to be comparable to Table II (μg/mL)) |
| --- | --- | --- | --- | --- | --- | --- | --- |
| CC[C@@H](C)[C@@H](NC(=O)[C@@H](CCCCN)NC(=O)[C@H](NC(=O)[C@@H](CO)NC(=O)CNC(=O)[C@@H](CCCCN)NC(=O)[C@@H](Cc1cccc2ccccc12)NC(=O)[C@@H](CCCCN)NC(=O)[C@@H](C)NC(=O)[C@@H](CCC(N)=O)NC(=O)[C@@H](Cc1cccc2ccccc12)NC(=O)[C@@H](CCCNC(=N)N)NC(=O)[C@@H](Cc1ccccc1)NC(=O)[C@@H](CC(C)C)NC(=O)[C@H](N)CCCCN)[C@H](C)CC)C(N)=O [XMP.394, k-l-f-r-(naph-a)-q-a-k-(naph-a)-k-g-s-i-k-i] (H-[dK][dL][dF][dR][d1Nal][dQ][dA][dK][d1Nal][dK]G[dS][dI][dK][dI]-NH2; N-terminus assumed) | 4.3 ± 0.5 (≈ 2.25 µM) | 54.6 | 143 | 133 |  |  |  |
| CC(C)C[C@@H](NC(=O)[C@H](N)CCCCN)C(=O)N[C@H](Cc1ccccc1)C(=O)N[C@H](CCCNC(=N)N)C(=O)N[C@H](Cc1cccc2ccccc12)C(=O)N[C@H](CCC(N)=O)C(=O)N[C@H](C)C(=O)N[C@H](CCCCN)C(=O)N[C@H](Cc1cccc2ccccc12)C(=O)N[C@H](CCCCN)C(=O)NCC(=O)N[C@H](CO)C(N)=O [XMP.626, k-l-f-r-(naph-a)-q-a-k-(naph-a)-k-g-s] (H-[dK][dL][dF][dR][d1Nal][dQ][dA][dK][d1Nal][dK]G[dS]-NH2) |  |  | 99 | 80 | showed activity |  |  |
| CC(C)C[C@@H](NC(=O)[C@H](N)CCCCN)C(=O)N[C@H](Cc1ccccc1)C(=O)N[C@H](CCCNC(=N)N)C(=O)N[C@H](Cc1cccc2ccccc12)C(=O)N[C@H](CCC(N)=O)C(=O)N[C@H](C)C(=O)N[C@H](CCCCN)C(=O)N[C@H](Cc1cccc2ccccc12)C(=O)N[C@H](CCCCN)C(=O)NCC(N)=O [XMP.627, k-l-f-r-(naph-a)-q-a-k-(naph-a)-k-g] (H-[dK][dL][dF][dR][d1Nal][dQ][dA][dK][d1Nal][dK]G-NH2; N-terminus assumed) | 5.8 ± 0.7 (≈ 3.95 µM) | 77.6 | 98 | 62 |  | highest antimicrobial activities |  |
| CC(C)C[C@@H](NC(=O)[C@H](N)CCCCN)C(=O)N[C@H](Cc1ccccc1)C(=O)N[C@H](CCCNC(=N)N)C(=O)N[C@H](Cc1cccc2ccccc12)C(=O)N[C@H](CCC(N)=O)C(=O)N[C@H](C)C(=O)N[C@H](CCCCN)C(=O)N[C@H](Cc1cccc2ccccc12)C(=O)N[C@H](CCCCN)C(N)=O [XMP.628, k-l-f-r-(naph-a)-q-a-k-(naph-a)-k] (H-[dK][dL][dF][dR][d1Nal][dQ][dA][dK][d1Nal][dK]-NH2) |  |  | 107 | 68 | showed activity | highest antimicrobial activities |  |
| CC(C)C[C@@H](NC(=O)[C@H](N)CCCCN)C(=O)N[C@H](Cc1ccccc1)C(=O)N[C@H](CCCNC(=N)N)C(=O)N[C@H](Cc1cccc2ccccc12)C(=O)N[C@H](CCC(N)=O)C(=O)N[C@H](C)C(=O)N[C@H](CCCCN)C(N)=O [XMP.630, k-l-f-r-(naph-a)-q-a-k] (H-[dK][dL][dF][dR][d1Nal][dQ][dA][dK]-NH2; N-terminus and C-terminus assumed) | >25 | 49.6 | 2.3 | 0.5 |  |  | > 50 |
